The source of these data is US12458650B2, “Urination disorder-improving agent” (ASKA Pharmaceutical Co., Ltd., priority 2019, dated 2025).

For orientation: inhibition means the relative decrease from the control value, in per cent.

Series [1] deals with lower urinary tract obstruction model of rats. The series can be described thus: Test Example 1: urination function in female rat lower urinary tract obstruction model (cystometry, tissue wet weights, survival). The format is in vivo. The following applies: 2 weeks. From the text:
A lower urinary tract obstruction model of rats was used as a test system. A test substance was orally administered to the lower urinary tract obstruction model repeatedly over two (2) weeks to examine the action on the urination function in the lower urinary tract obstruction model.
More specifically, the rats (female, Crl:CD(SD), 8-week-old; Charles River Laboratories Japan, Inc.) were operated to form lower urinary tract obstruction and repeatedly received oral administration of the test substance at a frequency of once a day over two (2) weeks. After the completion of the administration, each rat was subjected to bladder catheterization under anesthesia, cystometry under no anesthesia, then cystometry under urethane anesthesia, and euthanasia under deep anesthesia, and the tissues (bladder, kidney) of the rat were extracted or surgically removed. As a normal group, the rats without operation for forming lower urinary tract obstruction were used.
The test system, the test substances, and the dosage are as follows. • Normal group: 0.5 v/v. Polysorbate 80 solution, 10 mL/kg (n=6) • Solvent group (control group): 0.5 v/v % Polysorbate 80 solution, 10 mL/kg (n=15) • Group A: Compound A, 10 mg/kg (n=15) • Group B3: Compound B, 3 mg/kg (n=7) • Group B10: Compound B, 10 mg/kg (n=7)
The residual urine volume, the urination efficiency, and the bladder capacity were measured as follows.
After urination, the residual urine was aspirated from the outlet end of the catheter placed in the bladder to measure the volume (mL) of the residual urine.
After urination, the weight of the voided urine was measured to determine the voided volume (g=mL), and then the urination efficiency was calculated by the following equation: Urination efficiency (%)=[(Voided volume (mL))/(Voided volume (mL)+Residual urine volume (mL))]×100 [Bladder Capacity]
The bladder capacity was calculated from the voided volume and the residual urine volume by the following equation: Bladder capacity(mL)=Voided volume (mL)+Residual urine volume (mL)
Moreover, the wet weight of the extracted bladder and that of the extracted kidney were measured.

Series [2] deals with model of a urination disorder associated with streptozocin-induced diabetes. As to the kind of experiment: Test Example 6: urination disorder model associated with streptozocin-induced diabetes, compound A versus dutasteride. Type of series: in vivo, rat. Here is the method:
As described below, a model of a urination disorder associated with streptozocin-induced diabetes was prepared as a urination disorder model in accordance with Test Example 4 to evaluate the effects of the compound A and the compound C on a urination disorder. This model has no benign prostatic hyperplasia and is a model of a urination disorder associated with neuropathy and smooth muscle contraction disorder.
The body weights of Rats (male, Crl:CD(SD), 5-week-old; Charles River Laboratories Japan, Inc.) were measured. On the basis of the body weight, the rats were grouped or divided into two (2) groups. The day after the rats were grouped, a fist group received intraperitoneal administration of a citrate buffer (pH 4.5) (10 mL/kg) having a concentration of 0.1 mmol/L, and a second group received intraperitoneal administration of streptozocin (STZ; Sigma-Aldrich) (50 mg/kg). Streptozocin (STZ) was administered in the form of a solution of streptozocin having a concentration of 5 mg/mL in the citrate buffer.
About one (1) week after streptozocin (STZ) was administered, the body weight and the fasting blood glucose were measured. In the streptozocin (STZ) administration group (the second group), individuals having a fasting blood glucose level of not less than 300 mg/dL were used as animals with induced diabetes. These animals with induced diabetes are a model having no abnormality of the prostate (having no benign prostatic hyperplasia). On the basis of the body weight and the fasting blood glucose level, the animals (models) with induced diabetes were grouped or divided into three (3) groups by randomized, multivariable block allocation.
To the three model groups with induced diabetes, a 0.5 v/v % Polysorbate 80 solution (0.5% P) (10 mL/kg), the compound A (3 mg/kg), and the compound C (dutasteride) (0.3 mg/kg) were orally administered, respectively, wherein the administration schedule in all groups was a frequency of once a day, only on weekdays, over four (4) weeks. Moreover, to the above-mentioned first group, a 0.5 v/v % Polysorbate 80 solution (0.5% P) (10 mL/kg) was orally administered in the same administration schedule (normal group). On the last day of administration, a cannula was inserted into and secured to the dome of the bladder under isoflurane anesthesia, and cystometry (Cystometogram, CMG) was conducted in the order of under awake condition and under urethane anesthesia to measure the intravesical pressure, the voided volume, and the residual urine volume. After the completion of the measurement, the blood was collected under deep isoflurane anesthesia, and then the prostate (ventral prostate, dorsolateral prostate) was extracted and each was weighed. Moreover, the blood glucose level in the collected blood was measured.
The test substances and the dosage in the test system (rats having the urination disorder associated with diabetes) are as follows. • Normal group: citrate buffer 10 mL/kg (intraperitoneal administration), 0.5% P 10 mL/kg (oral administration) (n=10) • Solvent group (control group): STZ 50 mg/kg (intraperitoneal administration), 0.5% P 10 mL/kg (oral administration) (n=10) • Group A3: STZ 50 mg/kg (intraperitoneal administration), Compound A 3 mg/kg (oral administration) (n=10) • Group C0.3: STZ 50 mg/kg (intraperitoneal administration), Compound C (dutasteride) 0.3 mg/kg (oral administration) (n=10)
Urination parameter: In the same manner as in Test Example 4, the residual urine volume (mL) and the urination efficiency % were determined as urination parameters in each urination, and the average value of two measurements was taken as a measured value of each individual.
Prostate weight: In the same manner as in Test Example 4, the weight of the prostate (ventral prostate, dorsolateral prostate, and whole) was converted to a tissue weight per 100 g of the body weight. […]

Series [3] concerns uterine weight associated with rat deciduoma formation. The series can be described thus: Test Example 5: antiprogesterone activity, uterine weight associated with rat deciduoma formation in ovariectomized rats. The note with it: 192 h, Group D: 3 mg/kg oral once a day, 8 days, ovariectomized female rats, compared with solvent group, FIG. 18, read-out: inhibition rate of uterine weight increase (antiprogesterone action). The format is in vivo. The method, then:
For the compound A and the compound D (mifepristone), the antiprogesterone activity was measured. Specifically, a sex hormone and a test substance were repeatedly administered to ovariectomized rats as a test system to examine the antiprogesterone action (antiprogesterone activity) based on, as an index, the fluctuation of the uterine weight (the inhibitory action relative to the increase of the weight) associated with rat deciduoma formation.
More specifically, rats (female, Crl:CD(SD), 5-week-old: Charles River Laboratories Japan, Inc.) were subjected to ovariectomy, and from one (1) week after the ovariectomy, a high dose estrone or 5 μg/one animal was hypodermically administered to the rats once a day for three (3) days. From the day after one day rest period, the rats received, once a day over eight (8) days, hypodermic administration of a low dose estrone (1 μg/one animal), intramuscular administration of progesterone (6 mg/kg), and oral administration of a test substance. In the middle of the administration, on Day 4 of the start of administration, the rats were subjected to a stimulation treatment of decidualization reaction to the right uterus. The day after the final administration, the uterine weight (right uterine body) was measured (n=6). Group E was subjected to ovariectomy and a stimulation treatment of decidualization reaction but was not subjected to a hormone treatment.
The test substances and the dosage in the test system (ovariectomized rats) are as follows. • Group E: rats with ovariectomy without hormone treatment • 0.5 v/v % Polysorbate 80 solution, 10 mL/kg (n=6) • Solvent group (control group): 0.5 v/v % Polysorbate 80 solution, 10 mL/kg (n=6) • Group A3: Compound A, 3 mg/kg (n=6) • Group A10: Compound A, 10 mg/kg (n=6) • Group A30: Compound A, 30 mg/kg (n=6) • Group D: Compound D (mifepristone), 3 mg/kg (n=6)

Where [4] appears, read: Group C0.3: 0.3 mg/kg oral, 4 weeks, relative to solvent group.

Take `CC(=O)O[C@]1(C(C)=O)CC[C@H]2[C@@H]3C=C(Cl)C4=CC(=O)OC[C@]4(C)[C@H]3CC[C@@]21C` [Compound B, 17α-acetoxy-6-chloro-2-oxa-4,6-pregnadiene-3,20-dione, reference compound]: in series [1] (Groups B3 and B10: 3 mg/kg and 10 mg/kg oral once a day, vs control group, FIG. 1), the residual urine volume result is on record as “significantly increased”. Moreover, the urination efficiency result in series [1] (Groups B3 and B10: 3 mg/kg and 10 mg/kg oral once a day, vs control group, FIG. 2) was “reduced”. Also, the bladder capacity result in series [1] (Groups B3 and B10: 3 mg/kg and 10 mg/kg oral once a day, vs control group, FIG. 3) is recorded as “significantly increased”. Besides, the bladder wet weight entry in series [1] (Groups B: 3 mg/kg and 10 mg/kg oral once a day, FIG. 4) is given as “in the direction of increasing”. In addition, in series [1] (Groups B: 3 mg/kg and 10 mg/kg oral once a day, FIG. 5), the kidney wet weight entry is on record as “in the direction of increasing”. Also, in series [1] (Groups B: 3 mg/kg and 10 mg/kg oral once a day, FIG. 6), the survival rate result was “decreased”.
As for `C[C@]12C=CC(=O)N[C@@H]1CC[C@@H]1[C@@H]2CC[C@]2(C)[C@@H](C(=O)Nc3cc(C(F)(F)F)ccc3C(F)(F)F)CC[C@@H]12` [Compound C, dutasteride, reference compound], in series [2] (Group C0.3: 0.3 mg/kg oral, 4 weeks), the “therapeutic effect on diabetes (blood glucose level)” value is on record as “no therapeutic effect on diabetes”. Also, in series [2] (setting [4]), the “Dorsolateral prostate (atrophy rate)” value was “(37.5%)”, the “Ventral prostate (atrophy rate)” value is “(42.7%)” and the “Whole prostate (atrophy rate)” value is on record as “(40.7%)”. In series [2] (Group C0.3: 0.3 mg/kg, FIG. 21), the “bladder contraction force on urination by nomogram analysis (distance from the origin)” value is “almost the same position as the solvent group”. Also, the residual urine volume result in series [2] (Group C0.3: 0.3 mg/kg, cystometry under awake condition, vs solvent group, FIG. 19) is given as “did not statistically affect”. The urination efficiency result in series [2] (Group C0.3: 0.3 mg/kg, cystometry under awake condition, vs solvent group, FIG. 20) is listed as “did not statistically affect”.
Take `CC#C[C@]1(O)CC[C@H]2[C@@H]3CCC4=CC(=O)CCC4=C3[C@@H](c3ccc(N(C)C)cc3)C[C@@]21C` [Compound D, mifepristone, reference compound]: in series [3], the inhibition at 3 mg/kg is 89.5%.
